For 20 molecules, IC50 results are on record in patent publication US10022376B2 (Pfizer Inc., priority 2014, dated 2018).

Molecules are shown by their SMILES. Where a name gives a salt, the structure may show the parent alone. A value given as a limit tells only on which side of the number the result lay.

For the assay, the system named is rhIFNγ stimulated STAT-3 phosphorylation in the A549 human epithelial cell line. Briefly: A549 Cell Assay: Inhibition of pSTAT3. Type of assay: cell-based. The note with it: A549 cells. Summed up: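 A549 cells cultured 18 h were preincubated 1 h at 37° C with compound (0.3 nM to 10 μM, 0.1% DMSO) in DMEM with 0.2% BSA, then stimulated with 20 ng/mL rhIFNγ for 30 min. pSTAT3 Tyr705 in the lysates was measured by MSD immunoassay and expressed as percent inhibition.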

For the molecule `CN(c1ccc(O)cc1CNc1nc(-c2cc(F)c(O)cc2CC(F)(F)F)nc2[nH]nc(C(=O)Nc3ccc(NCCO)nc3)c12)S(C)(=O)=O` [Example 99, 6-(5-Fluoro-4-hydroxy-2-(2,2,2-trifluoroethyl)phenyl)-4-((5-hydroxy-2-(N-methylmethylsulfonamido)benzyl)amino)-N-(6-((2-hydroxyethyl)amino)pyridin-3-yl)-1H-pyrazolo[3,4-d]pyrimidine-3-carboxamide], 2470 nM corresponded to half-maximal inhibition (Homo sapiens) (IC50).
Where the note is “Homo sapiens”, `CS(=O)(=O)N(CCO)c1ccccc1CNc1nc(-c2cc(F)c(O)cc2CC(F)(F)F)nc2[nH]nc(C(N)=O)c12` [Example 101, 6-(5-fluoro-4-hydroxy-2-(2,2,2-trifluoroethyl)phenyl)-4-((2-(N-(2-hydroxyethyl)methyl-sulfonamido)benzyl)amino)-1H-pyrazolo[3,4-d]pyrimidine-3-carboxamide] gave an IC50 of more than 10000 nM.
Same read-out and setting: the result for `CCN(c1ccccc1CNc1nc(-c2cc(F)c(O)cc2CC(F)(F)F)nc2[nH]nc(C(=O)NC)c12)S(C)(=O)=O` [Example 103, 4-((2-(N-ethylmethylsulfonamido)benzyl)amino)-6-(5-fluoro-4-hydroxy-2-(2,2,2-trifluoroethyl)-phenyl)-N-methyl-1H-pyrazolo[3,4-d]pyrimidine-3-carboxamide] reads 235 nM; that for `CNC(=O)c1n[nH]c2nc(-c3cc(F)c(O)cc3CC(F)(F)F)nc(NCc3cc(F)ccc3N(C)S(C)(=O)=O)c12` [Example 104, 4-((5-fluoro-2-(N-methylmethylsulfonamido)benzyl)amino)-6-(5-fluoro-4-hydroxy-2-(2,2,2-trifluoroethyl)phenyl)-N-methyl-1H-pyrazolo[3,4-d]pyrimidine-3-carboxamide], 292 nM.
Still for that read-out and setting: the result for `CNC(=O)c1n[nH]c2nc(-c3cc(F)c(O)cc3CC(F)(F)F)nc(NCc3cc(O)ccc3N(C)S(=O)(=O)c3ccccc3)c12` [Example 106, 4-((2-(N-Methylphenylsulfonamido)-5-hydroxybenzyl)amino)-6-(5-fluoro-4-hydroxy-2-(2,2,2-trifluoroethyl)phenyl)-N-methyl-1H-pyrazolo[3,4-d]pyrimidine-3-carboxamide] reads 2520 nM.
The same measure, in the same setting: the result for `CCN(c1ccc(O)cc1CNc1nc(-c2cc(F)c(O)cc2CC(F)(F)F)nc2[nH]nc(C(N)=O)c12)S(=O)(=O)c1ccccc1` [Example 107, 4-((2-(N-ethylphenylsulfonamido)-5-hydroxybenzyl)amino)-6-(5-fluoro-4-hydroxy-2-(2,2,2-trifluoroethyl)phenyl)-1H-pyrazolo[3,4-d]pyrimidine-3-carboxamide] reads 899 nM.
As to `CN(c1ccc(O)cc1CNc1nc(-c2cc(F)c(O)cc2CC(F)(F)F)nc2[nH]nc(C(N)=O)c12)S(=O)(=O)c1ccccc1` [Example 108, 4-((2-(N-methylphenylsulfonamido)-5-hydroxybenzyl)amino)-6-(5-fluoro-4-hydroxy-2-(2,2,2-trifluoroethyl)phenyl)-1H-pyrazolo[3,4-d]pyrimidine-3-carboxamide], the IC50 (Homo sapiens) came to 1500 nM.
Molecule `CNC(=O)c1n[nH]c2nc(-c3cc(F)c(O)cc3CC(F)(F)F)nc(NCc3ccccc3N(C)S(=O)(=O)NC)c12` [Example 110, 6-(5-Fluoro-4-hydroxy-2-(2,2,2-trifluoroethyl)phenyl)-N-methyl-4-((2-(methyl(N-methylsulfamoyl)amino)benzyl)amino)-1H-pyrazolo[3,4-d]pyrimidine-3-carboxamide] returned a 50% inhibitory concentration (IC50) (Homo sapiens) of more than 10000 nM.
On the same count and under the same terms, the result for `CCc1cc(O)c(F)cc1-c1cc2[nH]ncc2c(N(CCc2ccc(OC)c(OC)c2)Cc2ccccc2N(C)S(C)(=O)=O)n1` [Example 129, N-[2-({[2-(3,4-dimethoxyphenyl)ethyl][6-(2-ethyl-5-fluoro-4-hydroxyphenyl)-1H-pyrazolo[4,3-c]pyridin-4-yl]amino}methyl)phenyl]-N-methylmethanesulfonamide hydrochloride] reads 62.4 nM.
Take `CCc1cc(O)c(F)cc1-c1cc2[nH]ncc2c(NCc2ccccc2N(C)S(=O)(=O)CC)n1` [Example 135, N-[2-({[6-(2-ethyl-5-fluoro-4-hydroxyphenyl)-1H-pyrazolo[4,3-c]pyridin-4-yl]amino}methyl)-phenyl]-N-methylethanesulfonamide hydrochloride]: the half-maximal inhibitory concentration (IC50) (Homo sapiens) was found to be 3.3 nM.
Same read-out and setting: the result for `CCc1cc(O)c(F)cc1-c1cc2[nH]ncc2c(NCc2ccccc2N(CC)S(=O)(=O)CC)n1` [Example 136, N-ethyl-N-[2-({[6-(2-ethyl-5-fluoro-4-hydroxyphenyl)-1H-pyrazolo[4,3-c]pyridin-4-yl]amino}-methyl)phenyl]ethanesulfonamide hydrochloride] reads 13.3 nM; that for `CN(c1ccccc1CNc1nc(-c2cc(F)c(O)cc2CC(F)(F)F)cc2[nH]ncc12)S(C)(=O)=O` [Example 148, N-{2-[({6-[5-Fluoro-4-hydroxy-2-(2,2,2-trifluoroethyl)phenyl]-1H-pyrazolo[4,3-c]pyridin-4-yl}amino)methyl]phenyl}-N-methylmethanesulfonamide], 14.9 nM.
On the same count and under the same terms, the result for `Oc1cc(CC(F)(F)F)c(-c2nc(NCC3CC3)c3cn[nH]c3n2)cc1F` [Example 151, 4-{4-[(cyclopropylmethyl)amino]-1H-pyrazolo[3,4-d]pyrimidin-6-yl}-2-fluoro-5-(2,2,2-trifluoroethyl)phenol] reads 133 nM.
The same measure, in the same setting: the result for `Oc1cc(CC(F)(F)F)c(-c2nc(NCCC3CC3)c3cn[nH]c3n2)cc1F` [Example 152, 4-{4-[(2-cyclopropylethyl)amino]-1H-pyrazolo[3,4-d]pyrimidin-6-yl}-2-fluoro-5-(2,2,2-trifluoroethyl)phenol] reads 133 nM.
`CCc1cc(O)c(F)cc1-c1nc(NCc2ccccc2N(C)S(C)(=O)=O)c2cn[nH]c2n1` [Example 155, N-[2-({[6-(2-Ethyl-5-fluoro-4-hydroxyphenyl-1H-pyrazolo[3,4-d]pyrimidin-4-yl]amino}methyl)phenyl]-N-methylmethanesulfonamide hydrochloride] gave a half-inhibitory concentration (IC50) of 30.1 nM.
In turn, `CCc1cc(O)cc(C)c1-c1cc2[nH]ncc2c(NCc2ccccc2N(C)S(C)(=O)=O)n1` [Example 156] came in with an IC50 of 72.4 nM.
Molecule `CCc1cc(O)c(F)cc1-c1cc2[nH]nc(-c3ncc[nH]3)c2c(NCc2ccccc2N(C)S(C)(=O)=O)n1` [Example 157, N-[2-({[6-(2-Ethyl-5-fluoro-4-hydroxyphenyl)-3-(1H-imidazol-2-yl)-1H-pyrazolo[4,3-c]pyridin-4-yl]amino}methyl)phenyl]-N-methylmethanesulfonamide] had an IC50 (Homo sapiens) of 26.2 nM.
`CCc1cc(O)c(F)cc1-c1cc2[nH]nc(-c3nc(C)c(C)[nH]3)c2c(NCc2ccccc2N(C)S(C)(=O)=O)n1` [Example 158] gave an IC50 of 31.3 nM.
Where the note is “Homo sapiens”, `CCc1cc(O)c(F)cc1-c1cc2[nH]nc(-c3nc(C)c[nH]3)c2c(NCc2ccccc2N(C)S(C)(=O)=O)n1` [Example 159, N-[2-({[6-(2-Ethyl-5-fluoro-4-hydroxyphenyl)-3-(4-methyl-1H-imidazol-2-yl)-1H-pyrazolo[4,3-c]pyridin-4-yl]amino}methyl)phenyl]-N-methylmethanesulfonamide] registered an IC50 of 18.7 nM.
Still for that read-out and setting: the result for `CCc1cc(O)c(F)cc1-c1cc2[nH]nc(-n3cccn3)c2c(NCc2ccccc2N(C)S(C)(=O)=O)n1` [Example 162, N-[2-({[6-(2-Ethyl-5-fluoro-4-hydroxyphenyl)-3-(1H-pyrazol-1-yl)-1H-pyrazolo[4,3-c]pyridin-4-yl]amino}methyl)phenyl]-N-methylmethanesulfonamide] reads 20 nM.

As usually defined, the IC50 is the point on the concentration scale where inhibition reaches its midpoint. Read a low IC50 as greater potency.
